ChEMBL document CHEMBL3120139, “Design, synthesis, pharmacological evaluation and computational studies of 1-(biphenyl-4-yl)-2-[4-(substituted phenyl)-piperazin-1-yl]ethanones as potential antipsychotics” (Eur J Med Chem, 2014)

Experiments:
[1] = tested on: Mus musculus; assay: Antiserotogenic activity in albino mouse assessed as inhibition of 5HTP-induced head twitches at 15 mg/kg, ip measured for 5 mins at every 5 mins interval for 1 hr relative to control; format: functional; conditions: route intraperitoneal
[2] = tested on: Mus musculus; assay: Induction of catalepsy in albino mouse at 15 mg/kg, ip relative to control; format: organism-based; parameters: dose 15 mg/kg, route intraperitoneal; conditions: in vivo
[3] = tested on: Mus musculus; assay: Antipsychotic activity in albino mouse assessed as inhibition of apomorphine-induced climbing behaviour at 15 mg/kg, ip measured after 10 mins at 5 mins interval for 30 mins relative to control; format: functional; conditions: route intraperitoneal

SMILES | inhibition in vivo at 15 mg/kg [1] [%] | Activity [2] [%] | inhibition in vivo at 15 mg/kg [3] [%]
O=C(CN1CCN(c2ccccc2)CC1)c1ccc(-c2ccccc2)cc1 | 28 | 34.53 | 31.9
O=C(CN1CCN(c2ccccc2Cl)CC1)c1ccc(-c2ccccc2)cc1 | 35.2 | 42.31 | 38.2
Cc1ccccc1N1CCN(CC(=O)c2ccc(-c3ccccc3)cc2)CC1 | 26.7 | 35.84 | 38.5
COc1ccccc1N1CCN(CC(=O)c2ccc(-c3ccccc3)cc2)CC1 | 61.3 | 29.43 | 53.4
O=C(CN1CCN(c2cccc(Cl)c2)CC1)c1ccc(-c2ccccc2)cc1 | 32.6 | 31.84 | 29.9
Cc1cccc(N2CCN(CC(=O)c3ccc(-c4ccccc4)cc3)CC2)c1 | 29.6 | 33.82 | 33.6
O=C(CN1CCN(c2cccc(C(F)(F)F)c2)CC1)c1ccc(-c2ccccc2)cc1 | 32.6 | 31.84 | 26.4
O=C(CN1CCN(c2ccc(Cl)cc2)CC1)c1ccc(-c2ccccc2)cc1 | 29.2 | 35.17 | 26.4
O=C(CN1CCN(c2ccc(F)cc2)CC1)c1ccc(-c2ccccc2)cc1 | 24.5 | 30.48 | 23.4
Cc1ccc(N2CCN(CC(=O)c3ccc(-c4ccccc4)cc3)CC2)cc1 | 29.8 | 38.66 | 33.3
COc1ccc(N2CCN(CC(=O)c3ccc(-c4ccccc4)cc3)CC2)cc1 | 36.1 | 59.28 | 32.9
O=C(CN1CCN(c2cccc(Cl)c2Cl)CC1)c1ccc(-c2ccccc2)cc1 | 38.3 | 28.97 | 42.8
Cc1cccc(N2CCN(CC(=O)c3ccc(-c4ccccc4)cc3)CC2)c1C | 35.4 | 29.87 | 40.7
O=C(CN1CCN(c2ccc(Cl)c(Cl)c2)CC1)c1ccc(-c2ccccc2)cc1 | 38.8 | 30.5 | 25.7
O=C1CCc2ccc(OCCCCN3CCN(c4cccc(Cl)c4Cl)CC3)cc2N1 [ARIPIPRAZOLE] | 94.5 | 26.86 | 61.1
